Measured values as given in patent publication US5849797A, “D-β-lysylmethanediamine derivatives and preparation thereof” (Zaidan Hojin Biseibutsu Kagaku Kenkyu Kai, priority 1994, dated 1998).
Converted amounts (≈) assume the structure as drawn.

Key:
[1] = system: S. aureus Smith; assay: Antibacterial activity, MIC by serial dilution method; format: cell-based; details: Staphylococcus aureus, 0.5% peptone agar, 37° C., 18 hours
[2] = system: MT-4 cells; assay: Cytotoxicity to MT-4 cells; format: cell-based, human; set-up: key: -: That the cytotoxicity was not observed; details: absence of HIV
Method: Furthermore, cytotoxicity of the tested compound to the MT-4 cells was estimated. This was done by incubating the MT-4 cells at varying concentrations of the tested compound and in the absence of HIV but in the same manner of incubation and under the same conditions of incubation of MT-4 cells as those employed in the above-mentioned test procedures of assaying the activity of the tested compound to inhibit the infection of T-cells with HIV. That the cytotoxicity was not observed is represented by the symbol "-" in Table 2 below.

[3] = system: Providencia rettgeri GN311; assay: Antibacterial activity, MIC by serial dilution method; format: cell-based; details: 0.5% peptone agar, 37° C., 18 hours
[4] = system: Micrococcus luteus FDA16; assay: as above; format: cell-based; details: 0.5% peptone agar, 37° C., 18 hours
[5] = system: Bacillus anthracis; assay: microbe, parasite or virus in culture; format: cell-based; details: 18 h
[6] = system: B. subtilis PC1219; assay: Antibacterial activity, MIC by serial dilution method; format: cell-based; details: Bacillus subtilis, 0.5% peptone agar, 37° C., 18 hours
[7] = system: B. cereus ATCC10702; assay: as above; format: cell-based; details: Bacillus cereus, 0.5% peptone agar, 37° C., 18 hours
[8] = system: Klebsiella pneumoniae PCI602; assay: as above; format: cell-based; details: 0.5% peptone agar, 37° C., 18 hours
[9] = system: Staphylococcus aureus FDA209P; assay: as above; format: cell-based; details: 0.5% peptone agar, 37° C., 18 hours
[10] = system: Shigella dysenteriae JS11910; assay: as above; format: cell-based; details: JS11910, 18 h
[11] = system: S. flexnelli 4b JS1811; assay: as above; format: cell-based; details: 0.5% peptone agar, 37° C., 18 hours
Method: The minimum inhibitory concentrations (MIC.) of (R)-3,6-diamino-N-(2-aminoethyl)hexanamide of the formula (Ia) and (R)-3,6-diamino-N-(3-aminopropyl)hexanamide of the formula (Ib) against the growth of various bacteria were determined by a serial dilution method on a 0.5% peptone agar medium (incubated at 37° C. for 18 hours). The results obtained are shown in Table 1 below, in comparison with the MIC. of D-β-lysylmethanediamine (Bellenamine).

[12] = system: P. mirabilis IFM OM-9; assay: as above; format: cell-based; details: Proteus mirabilis, IFMOM9, 0.5% peptone agar, 37° C., 18 hours
[13] = system: B. subtilis NRRL B-558; assay: as above; format: cell-based; details: Bacillus subtilis, NRRLB558, 0.5% peptone agar, 37° C., 18 hours
[14] = system: Pseudomonas aeruginosa A3; assay: as above; format: cell-based; details: 0.5% peptone agar, 37° C., 18 hours
[15] = system: mice; assay: Acute toxicity by intravenous injection to mice; format: in vivo; details: 250 mg/kg
[16] = system: E. coli K-12; assay: Antibacterial activity, MIC by serial dilution method; format: cell-based; details: Escherichia coli, K12, 0.5% peptone agar, 37° C., 18 hours
[17] = Solubility; format: physicochemical; details: in water
[18] = system: Proteus vulgaris OX19; assay: Antibacterial activity, MIC by serial dilution method; format: cell-based; details: 0.5% peptone agar, 37° C., 18 hours
[19] = system: P. rettgeri GN466; assay: as above; format: cell-based; details: Providencia rettgeri, 0.5% peptone agar, 37° C., 18 hours
[20] = system: HIV (HTLV-IIIB strain); assay: microbe, parasite or virus in culture; format: cell-based; details: Human immunodeficiency virus 1, IIIB, MT4, 96 h, MT-4 cells, 4 days, 90 at 0 μg/ml, read-out: Rate (%) of presence of HIV antigen-positive cells; for activity at 0.1 µg/mL: 0.1 μg/ml; for activity at 1 µg/mL: 1 μg/ml; for activity at 10 µg/mL: 10 μg/ml
[21] = system: mouse leukemia P388 cells; assay: Antitumor activity, growth inhibition of mouse leukemia P388 cells; format: cell-based
Method: In this way, such concentration of the tested compound which can inhibit the growth of the P388 cells by 50%, that is, the IC50 -value of the tested compound against the P388 cells was estimated. For comparison purpose, Bellenamine was tested in the same manner as above.

[22] = system: Escherichia coli NIHJ; assay: Antibacterial activity, MIC by serial dilution method; format: cell-based; details: 0.5% peptone agar, 37° C., 18 hours
[23] = system: Serratia marcescens; assay: as above; format: cell-based; details: 0.5% peptone agar, 37° C., 18 hours

SMILES | MIC [1] [µg/mL] | Cytotoxicity (given in brackets) ([2]; 0.1 μg/ml) | Cytotoxicity (given in brackets) ([2]; 1 μg/ml) | Cytotoxicity (given in brackets) ([2]; 10 μg/ml) | MIC [3] [µg/mL] | MIC [4] [µg/mL] | MIC [5] [µg/mL] | MIC [6] [µg/mL] | MIC [7] [µg/mL] | MIC [8] [µg/mL] | MIC [9] [µg/mL] | MIC [10] [µg/mL] | MIC [11] [µg/mL] | MIC [12] [µg/mL] | MIC [13] [µg/mL] | MIC [14] [µg/mL] | MIC [16] [µg/mL] | MIC [18] [µg/mL] | MIC [19] [µg/mL] | activity at 0.1 µg/mL [20] [%] | also measured
NCCC[C@@H](N)CC(=O)NCCN [Compound (Ia), (R)-3,6-diamino-N-(2-aminoethyl)hexanamide] | 6.25 (≈ 33.2 µM) | - | - | - | 25 (≈ 133 µM) | > 200 | 100 (≈ 531 µM) | 25 (≈ 133 µM) | 50 (≈ 266 µM) | 200 (≈ 1060 µM) | 25 (≈ 133 µM) | 200 (≈ 1060 µM) | 100 (≈ 531 µM) | 25 (≈ 133 µM) | 25 (≈ 133 µM) | 100 (≈ 531 µM) | 200 (≈ 1060 µM) | 200 (≈ 1060 µM) | 50 (≈ 266 µM) | 90 | Acute toxicity (death of mice) [15]: did not cause death of mice; Solubility [17]: highly soluble in water; activity at 1 µg/mL [20]: 80%; activity at 10 µg/mL [20]: 30%; IC50 [21]: 0.012 µg/mL (≈ 0.0637 µM); MIC [22]: 100 µg/mL (≈ 531 µM); MIC [23]: 100 µg/mL (≈ 531 µM)
NCCC[C@@H](N)CC(=O)NCN [Bellenamine, D-β-lysylmethanediamine] | 6.25 (≈ 35.9 µM) | - | - | - | 50 (≈ 287 µM) | > 200 | 100 (≈ 574 µM) | 12.5 (≈ 71.7 µM) | 50 (≈ 287 µM) | > 200 | 50 (≈ 287 µM) | > 200 | > 200 | 200 (≈ 1150 µM) | 12.5 (≈ 71.7 µM) | 200 (≈ 1150 µM) | > 200 | > 200 | 100 (≈ 574 µM) | 50 | activity at 1 µg/mL [20]: 5%; activity at 10 µg/mL [20]: 10%; IC50 [21]: 0.36 µg/mL (≈ 2.07 µM); MIC [22]: 200 µg/mL (≈ 1150 µM); MIC [23]: 200 µg/mL (≈ 1150 µM)
NCCCNC(=O)C[C@H](N)CCCN [Compound (Ib), (R)-3,6-diamino-N-(3-aminopropyl)hexanamide] | 50 (≈ 247 µM) | - | - | - | 100 (≈ 494 µM) | > 200 | 200 (≈ 989 µM) | 100 (≈ 494 µM) | 200 (≈ 989 µM) | > 200 | 200 (≈ 989 µM) | 200 (≈ 989 µM) | 200 (≈ 989 µM) | 50 (≈ 247 µM) | 100 (≈ 494 µM) | 200 (≈ 989 µM) | 200 (≈ 989 µM) | 200 (≈ 989 µM) | 50 (≈ 247 µM) | 80 | Acute toxicity (death of mice) [15]: did not cause death of mice; Solubility [17]: highly soluble in water; activity at 1 µg/mL [20]: 10%; activity at 10 µg/mL [20]: 5%; IC50 [21]: 0.028 µg/mL (≈ 0.138 µM); MIC [22]: 200 µg/mL (≈ 989 µM); MIC [23]: 200 µg/mL (≈ 989 µM)
